# Experimental data: patent publication US20260109707A1, “HETEROBIFUNCTIONAL COMPOUNDS AND METHODS OF TREATING DISEASE” (Halda Therapeutics OpCo. Inc., priority 2022, published 2026)
# Read-outs that look alike come from different tables or passages of the source.
# Legend:
# [1] = system: T-Rex 293 cell line SC3 cells lacking increased expression of androgen receptor protein; experiment: Cellular growth inhibition assay, T-Rex 293 SC3 cells without doxycycline (CellTiter-Glo, 72 hours); format: cell-based; conditions: T-Rex 293 cell line SC3 cells not exposed to doxycycline (lacking increased androgen receptor expression)
# Summary of the method: (§1)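 Doxycycline (10 ng/mL) was either included or omitted to toggle wild-type androgen receptor expression in SC3 cells, a T-Rex 293 clone, grown in stripped-serum, phenol red-free medium. After 72 hours with compound, viable cells were quantified by CellTiter-Glo 2.0.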
# [2] = system: T-Rex 293 cell line SC3 cells having increased expression of androgen receptor protein due to exposure to doxycycline; experiment: Cellular growth inhibition assay, T-Rex 293 SC3 cells with doxycycline (CellTiter-Glo, 72 hours); format: cell-based; conditions: T-Rex 293 SC3 cells with increased androgen receptor expression due to doxycycline (10 ng/mL)
# Summary of the method: as §1
# VCaP cells = experiment: Cellular growth inhibition assay for VCaP cells (CellTiter-Glo, 72 hours); format: cell-based, human
# Summary of the method: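 Luminescent viability signal after 72 h of compound exposure gave GI50 values by four-parameter nonlinear regression. Compounds were added in 0.5% DMSO to cells plated 24 h earlier at 5000/well in DMEM containing 10% FBS.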
"GI50 (VCaP cells; Homo sapiens, VCaP, 72 h)",GI50 (VCaP cells),SMILES,GI50 ([1]; 72 h),GI50 ([2]; 72 h),GI50 [1],GI50 [2]
< 500 nM,,Cc1sc2c(c1C)C(c1ccc(C3CCC4(CCN(c5ccc(C(=O)N[C@H]6CC[C@H](Oc7ccc(C#N)c(Cl)c7)CC6)nn5)CC4)C3)cc1)=NC1(CC1)c1nnc(C)n1-2 (stereo partly drawn) [I-519],> 3000 nM,< 500 nM,,
,< 500 nM,"Cc1sc2c(c1C)C(c1ccc(N3CCC4(CC3)CCN(c3ccc(C(=O)N[C@H]5CC[C@H](Oc6ccc(C#N)c(Cl)c6)CC5)nn3)C4)cc1)=NC(C(F)(F)F)c1nnc(C)n1-2 (single isomer, unassigned) [I-719]",,,> 3000 nM,< 500 nM
,< 500 nM,Cc1sc2c(c1C)C(c1ccc(OC3CCC4(CCCN(c5ccc(C(=O)N[C@H]6CC[C@H](Oc7ccc(C#N)c(Cl)c7)CC6)nn5)C4)C3)cc1)=NC1(CC1)c1nnc(C)n1-2 (stereo partly drawn) [I-525],,,> 3000 nM,< 500 nM
< 500 nM,,Cc1sc2c(c1C)C(c1ccc(C3CCC4(CCCN(c5ccc(C(=O)N[C@H]6CC[C@H](Oc7ccc(C#N)c(Cl)c7)CC6)nn5)C4)CC3)cc1)=N[C@@H](C)c1nnc(C)n1-2 (stereo partly drawn) [I-673],> 3000 nM,< 500 nM,,
,< 500 nM,Cc1sc2c(c1C)C(c1ccc(C3CCC4(CCN(c5ccc(C(=O)N[C@H]6CC[C@H](Oc7ccc(C#N)c(Cl)c7)CC6)nn5)CC4)C3)cc1)=NC(C(F)(F)F)c1nnc(C)n1-2 (stereo partly drawn) [I-760],,,> 3000 nM,< 500 nM
,< 500 nM,Cc1sc2c(c1C)C(c1ccc(C3CCC4(CC3)CCN(c3ccc(C(=O)N[C@H]5CC[C@H](Oc6ccc(C#N)c(Cl)c6)CC5)nn3)C4)cc1)=NC1(CC1)c1nnc(C)n1-2 (stereo partly drawn) [I-518],,,> 3000 nM,< 500 nM
,1500 to 3000 nM,"CC[C@@H]1N=C(c2ccc(C3CCC4(CC3)CCN(c3ccc(C(=O)N[C@H]5CC[C@H](Oc6ccc(C#N)c(Cl)c6)CC5)nn3)C4)cc2)c2c(sc(C)c2C)-n2c(C)nnc21 (single isomer, unassigned) [I-633]",,,< 500 nM,< 500 nM
> 3000 nM,,COCC[C@@H]1N=C(c2ccc(N3CCC4(CCCN(c5ccc(C(=O)N[C@H]6CC[C@H](Oc7ccc(C#N)c(Cl)c7)CC6)nn5)C4)CC3)cc2)c2c(sc(C)c2C)-n2c(C)nnc21 [I-569],> 3000 nM,< 500 nM,,
> 3000 nM,,Cc1sc2c(c1C)C(c1ccccc1OC1CC3(CCCN(c4ccc(C(=O)N[C@H]5CC[C@H](Oc6ccc(C#N)c(Cl)c6)CC5)nn4)C3)C1)=N[C@@H](C)c1nnc(C)n1-2 (stereo partly drawn) [I-716],> 3000 nM,> 3000 nM,,
,> 3000 nM,Cc1sc2c(c1C)C(c1ccc(C3CCC4(CCCN(c5ccc(C(=O)N[C@H]6CC[C@H](Oc7ccc(C#N)c(Cl)c7)CC6)nn5)C4)CC3)cc1)=NC(C(F)(F)F)c1nnc(C)n1-2 (stereo partly drawn) [I-697],,,> 3000 nM,> 3000 nM
,> 3000 nM,"Cc1sc2c(c1C)C(c1ccc(N3CCC4(CC3)CCN(c3ccc(C(=O)N[C@H]5CC[C@H](Oc6ccc(C#N)c(Cl)c6)CC5)nn3)C4)cc1)=NC(C(F)(F)F)c1nnc(C)n1-2 (single isomer, unassigned) [I-720]",,,> 3000 nM,> 3000 nM
,< 500 nM,Cc1sc2c(c1C)C(c1ccc(N3CCC4(CC3)CCN(c3ccc(C(=O)N[C@H]5CC[C@H](Oc6ccc(C#N)c(Cl)c6)CC5)nn3)C4)cc1F)=N[C@@H](C)c1nnc(C)n1-2 [I-767],,,< 500 nM,< 500 nM
,< 500 nM,Cc1sc2c(c1C)C(c1ccc(N3CCC4(CCN(c5ccc(C(=O)N[C@H]6CC[C@H](Oc7ccc(C#N)c(Cl)c7)CC6)nn5)C4)CC3)c(F)c1)=N[C@@H](C)c1nnc(C)n1-2 [I-735],,,< 500 nM,< 500 nM
,500 to 1500 nM,Cc1sc2c(c1C)C(c1ccc(N3CCC4CN(c5ccc(C(=O)N[C@H]6CC[C@H](Oc7ccc(C#N)c(Cl)c7)CC6)nn5)CCC4C3)cc1)=N[C@@H](C)c1nnc(C)n1-2 (stereo partly drawn) [I-621],,,> 3000 nM,< 500 nM
,1500 to 3000 nM,Cc1sc2c(c1C)C(c1ccc(OC3CCC4(C3)CN(c3ccc(C(=O)N[C@H]5CC[C@H](Oc6ccc(C#N)c(Cl)c6)CC5)nn3)CCO4)cc1)=N[C@@H](C)c1nnc(C)n1-2 (stereo partly drawn) [I-542],,,< 500 nM,< 500 nM
< 500 nM,,Cc1sc2c(c1C)C(c1ccc(N3CC45CCCCC4(C3)CN(c3ccc(C(=O)N[C@H]4CC[C@H](Oc6ccc(C#N)c(Cl)c6)CC4)nn3)C5)cc1)=N[C@@H](C)c1nnc(C)n1-2 (stereo partly drawn) [I-766],> 3000 nM,< 500 nM,,

# Second part, the molecule before the results:
SMILES,"GI50 (VCaP cells; Homo sapiens, VCaP, 72 h)",GI50 (VCaP cells),GI50 ([1]; 72 h),GI50 ([2]; 72 h),GI50 [1],GI50 [2]
"Cc1sc2c(c1C)C(c1ccc(C#CC3CC4(C3)CN(c3ccc(C(=O)N[C@H]5CC[C@H](Oc6ccc(C#N)c(Cl)c6)CC5)nn3)C4)cc1F)=NC(Cc1ncco1)c1nnc(C)n1-2 (mixture of isomers) [I-828, N-[4-(3-chloro-4-cyano-phenoxy)cyclohexyl]-6-[6-[2-[3-fluoro-4-[4,5,13-trimethyl-9-(oxazol-2-ylmethyl)-3-thia-1,8,11,12-tetrazatricyclo[8.3.0.02,6]trideca-2(6),4,7,10,12-pentaen-7-yl]phenyl]ethynyl]-2-azaspiro[3.3]heptan-2-yl]pyridazine-3-carboxamide]",< 500 nM,,< 500 nM,< 500 nM,,
Cc1sc2c(c1C)C(c1ccc(N[C@H]3CCCCN(c4ncc(C(=O)N[C@H]5CC[C@H](Oc6ccc(C#N)c(Cl)c6)CC5)cn4)C3)cc1)=NC(Cc1ncco1)c1nnc(C)n1-2 (stereo partly drawn) [I-803],< 500 nM,,> 3000 nM,< 500 nM,,
Cc1sc2c(c1C)C(c1ccc(OC3CC(CC4CCN(c5ccc(C(=O)N[C@H]6CC[C@H](Oc7ccc(C#N)c(Cl)c7)CC6)nn5)CC4)C3)cc1)=N[C@@H](C)c1nnc(C)n1-2 (stereo partly drawn) [I-543],< 500 nM,,> 3000 nM,< 500 nM,,
Cc1sc2c(c1C)C(c1ccc(C/C=C/C3CN(c4ccc(C(=O)N[C@H]5CC[C@H](Oc6ccc(C#N)c(Cl)c6)CC5)nn4)C3)cc1)=N[C@@H](Cc1ncco1)c1nnc(C)n1-2 [I-678],> 3000 nM,,> 3000 nM,< 500 nM,,
"Cc1sc2c(c1C)C(c1ccc(N3CCCC(CN(C)c4ncc(C(=O)N[C@H]5CC[C@H](Oc6ccc(C#N)c(Cl)c6)CC5)cn4)C3)cc1)=NC(Cc1ncco1)c1nnc(C)n1-2 (stereo partly drawn) [I-797, N-((1r,4r)-4-(3-chloro-4-cyanophenoxy)cyclohexyl)-2-(methyl((1-(4-(2,3,9-trimethyl-6-(oxazol-2-ylmethyl)-6H-thieno[3,2-f][1,2,4]triazolo[4,3-a][1,4]diazepin-4-yl)phenyl)piperidin-3-yl)methyl)amino)pyrimidine-5-carboxamide]",< 500 nM,,< 500 nM,< 500 nM,,
Cc1sc2c(c1C)C(c1ccc(N3CC(C4CCN(c5ccc(C(=O)N[C@H]6CC[C@H](Oc7ccc(C#N)c(Cl)c7)CC6)nn5)CC4)C3)nc1)=NCc1nnc(C)n1-2 [I-478],< 500 nM,,> 3000 nM,< 500 nM,,
Cc1sc2c(c1C)C(c1ccc(CCCC3CCN(c4ccc(C(=O)N[C@H]5CC[C@H](Oc6ccc(C#N)c(Cl)c6)CC5)nn4)CC3)cc1)=N[C@@H](C)c1nnc(C)n1-2 [I-592],< 500 nM,,< 500 nM,< 500 nM,,
Cc1sc2c(c1C)C(c1ccc(C3CCC4(CCN(c5ccc(C(=O)N[C@H]6CC[C@H](Oc7ccc(C#N)c(Cl)c7)CC6)nn5)CC4)C3)nc1)=NC1(CC1)c1nnc(C)n1-2 (stereo partly drawn) [I-739],,< 500 nM,,,500 to 1500 nM,< 500 nM
Cc1sc2c(c1C)C(c1ccc(OC3CCC4(C3)CN(c3ccc(C(=O)N[C@H]5CC[C@H](Oc6ccc(C#N)c(Cl)c6)CC5)nn3)CCO4)cc1)=NC1(CC1)c1nnc(C)n1-2 (stereo partly drawn) [I-506],,1500 to 3000 nM,> 3000 nM,< 500 nM,,
Cc1sc2c(c1C)C(c1ccc(C3CN(C4CCN(c5ccc(C(=O)N[C@H]6CC[C@H](Oc7ccc(C#N)c(Cl)c7)CC6)nn5)CC4)C3)cc1)=N[C@@H](C)c1nnc(C)n1-2 [I-560],1500 to 3000 nM,,< 500 nM,< 500 nM,,
Cc1sc2c(c1C)C(c1ccc(N3CC4(CC(Cc5ccc(C(=O)N[C@H]6CC[C@H](Oc7ccc(C#N)c(Cl)c7)CC6)nn5)C4)C3)cc1)=NC(C(F)(F)F)c1nnc(C)n1-2 (stereo partly drawn) [I-724],< 500 nM,,> 3000 nM,,,> 3000 nM
Cc1sc2c(c1C)C(c1ccc(C3CC(N4CCN(c5ccc(C(=O)N[C@H]6CC[C@H](Oc7ccc(C#N)c(Cl)c7)CC6)nn5)CC4)C3)cc1)=NC1(CC1)c1nnc(C)n1-2 (stereo partly drawn) [I-573],< 500 nM,,< 500 nM,< 500 nM,,
Cc1sc2c(c1C)C(c1ccc(CCCC3CCCN(c4ccc(C(=O)N[C@H]5CC[C@H](Oc6ccc(C#N)c(Cl)c6)CC5)nn4)CC3)nc1)=N[C@@H](C)c1nnc(C)n1-2 (stereo partly drawn) [I-671],< 500 nM,,< 500 nM,< 500 nM,,
Cc1sc2c(c1C)C(c1ccc(C#CC3CC4(CCCN(c5ccc(C(=O)N[C@H]6CC[C@H](Oc7ccc(C#N)c(Cl)c7)CC6)nn5)C4)C3)cn1)=NC(C)c1nnc(C)n1-2 (stereo partly drawn) [I-454],< 500 nM,,,,> 3000 nM,< 500 nM
Cc1sc2c(c1C)C(c1ccc(OCC3CC4(CCCN(c5ccc(C(=O)N[C@H]6CC[C@H](Oc7ccc(C#N)c(Cl)c7)CC6)nn5)C4)C3)cn1)=NC1(CC1)c1nnc(C)n1-2 (stereo partly drawn) [I-561],,> 3000 nM,,< 500 nM,500 to 1500 nM,
